Laboratory results as given in US20250241913A1, “COMBINATION THERAPIES BASED ON PD-1 INHIBITORS AND SIK3 INHIBITORS” (iOmx Therapeutics AG, priority 2022, published 2025).

Experiments:
KLN205 tumor cells = assay: KLN205 lung squamous cell carcinoma model, subcutaneous, tumor growth; assay type: in vivo, DBA/2 mice; settings: compared to control, E9 25 mg/kg twice daily oral, anti-murine-PD-1 mAb 10 mg/kg twice weekly i.p.
Method: FIG. 4: (A) Average tumor growth kinetics and overall survival monitored for the EMT6 tumor model after treatment start. […] Treatment regimes are indicated by indeces 1 to 4 in the figure and represent: (1) 10 ml/kg vehicle+10 mg/kg mIgG1e ctrl. (2) 10 ml/kg vehicle+10 mg/kg α-mu-PD-1 (3) 12.5 mg/kg compound E9+10 mg/kg mIgG1e ctrl. and (4) 12.5 mg/kg compound E9+10 mg/kg α-mu-PD-1 (B) Average tumor growth kinetics for the KLN205 tumor model upon initiation of therapy; Treatment regimes are indicated by indeces 1 to 4 in the figure and represent: (1) 10 ml/kg vehicle+10 mg/kg mIgG1e ctrl. (2) 10 ml/kg vehicle+10 mg/kg α-mu-PD-1 (3) 25 mg/kg compound E9+10 mg/kg mIgG1e ctrl. And (4) 25 mg/kg compound E9+10 mg/kg α-mu-PD-1.
EMT6 tumor cells were implanted into mammary fat pad in BALB/c mice and randomized at an average tumor volume of 65mm^3. KLN205 tumor cells were subcutaneously implanted in DBA/2 mice and randomized at an average tumor volume of 60 mm^3. Both animal models were treated twice daily by oral gavage with the indicated doses of compound E9 and twice weekly, intraperitoneal with 10 mg/kg anti-murine-PD-1 mAb (clone: RMP1-14) or corresponding controls.

MC38 tumor cells = assay: MC38 tumor model, subcutaneous, tumor growth, survival and flow cytometry of tumor infiltrating cells; assay type: in vivo, C57BI6/N mice
Method: FIG. 3: (A) Average tumor growth kinetics and overall survival monitored for the MC38 tumor model after treatment start. Treatment regimes are indicated by indeces 1 to 4 in the figure and represent: (1) 10 ml/kg vehicle+10 mg/kg mIgG1e ctrl. (2) 10 ml/kg vehicle+10 mg/kg α-muPD-1 (3) 25 mg/kg compound E9+10 mg/kg mIgG1e ctrl. and (4) 25 mg/kg compound E9+10 mg/kg α-mu-PD-1 (B) Tumor infiltrating cytotoxic T cells (CTL), CTL to regulatory T cell ratio, tumor associated M2-macrohages (M2-TAM) and M2-like TAM were analyzed by flow cytometry.
MC38 tumor cells were subcutaneously implanted in C57BI6/N mice, randomized at an average tumor volume of 100 mm^3 and tumor bearing mice were treated twice daily with 25 mg/kg compound E9 by oral gavage and twice weekly, intraperitoneal with 10 mg/kg anti-murine-PD-1 mAb (clone: RMP1-14) or corresponding controls.

[1] = monotherapy, 25 mg/kg E9 twice daily by oral gavage

For `Cc1nc(Nc2ncc(C(=O)Nc3c(CF)csc3Cl)s2)cc(N2CCN(C)CC2)n1` [E9, N-(2-chloro-4-(fluoromethyl)thiophen-3-yl)-2-((2-methyl-6-(4-methylpiperazin-1-yl)pyrimidin-4-yl)amino)thiazole-5-carboxamide], the “Growth inhibition (TGI)” value (KLN205 tumor cells) was 22%, the “CTL to Treg ratio” value (MC38 tumor cells; flow cytometry) was “promotion” and the “cytotoxic T lymphocyte (CTL) activity” value (MC38 tumor cells; flow cytometry) was “activating”. For the same molecule, the “immunosuppressive myeloid cells in tumour microenvironment” value (MC38 tumor cells; flow cytometry) was “reducing”, the “regulatory T cells (Treg) in tumour microenvironment” value (MC38 tumor cells; flow cytometry) was “reducing” and the anti-tumor efficacy (MC38 tumor cells; [1]) was “highly significant anti-tumor efficacy”. The survival (MC38 tumor cells; [1]) was “prolonged survival”.
